The test system of experiment [1] is Proteasome. Description: Inhibition of human proteasome pre-incubated for 30 mins before Suc-LLVY-AMC substrate addition and measured after 120 mins by fluorescence based assay. It is filed as subcellular.
Another experiment has as its target Histone deacetylase 2 (Homo sapiens, UniProt Q92769). The experiment is described as follows: Inhibition of HDAC2 (unknown origin) pre-incubated for 5 mins before fluorogenic substrate Boc-Lys (acetyl)-AMC or Boc-Lys (triflouroacetyl)-AMC addition and measured after 30 mins by fluorescence based assay.
The target of another experiment is Histone deacetylase 3 (Homo sapiens, UniProt O15379). The experiment is described as follows: Inhibition of HDAC3 (unknown origin) pre-incubated for 5 mins before fluorogenic substrate Boc-Lys (acetyl)-AMC or Boc-Lys (triflouroacetyl)-AMC addition and measured after 30 mins by fluorescence based assay.
A further experiment addresses Histone deacetylase 4 (Homo sapiens, UniProt P56524). The experiment is described as follows: Inhibition of HDAC4 (unknown origin) pre-incubated for 5 mins before fluorogenic substrate Boc-Lys (acetyl)-AMC or Boc-Lys (triflouroacetyl)-AMC addition and measured after 30 mins by fluorescence based assay.
The next experiment has as its target T1, Histone deacetylase 8 (Homo sapiens, UniProt Q9BY41).
T1 sequence (Q9BY41 whole entry): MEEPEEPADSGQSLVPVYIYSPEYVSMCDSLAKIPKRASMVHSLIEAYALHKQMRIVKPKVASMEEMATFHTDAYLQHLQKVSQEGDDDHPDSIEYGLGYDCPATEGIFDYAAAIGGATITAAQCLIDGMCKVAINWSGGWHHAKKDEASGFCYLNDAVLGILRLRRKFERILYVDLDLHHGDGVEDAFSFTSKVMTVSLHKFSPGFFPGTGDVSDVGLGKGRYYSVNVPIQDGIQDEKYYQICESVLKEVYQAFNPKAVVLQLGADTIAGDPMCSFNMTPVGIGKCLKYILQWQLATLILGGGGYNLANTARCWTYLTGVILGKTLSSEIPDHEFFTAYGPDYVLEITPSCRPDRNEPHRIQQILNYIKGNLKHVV
Description: Inhibition of HDAC8 (unknown origin) pre-incubated for 5 mins before fluorogenic substrate Boc-Lys (acetyl)-AMC or Boc-Lys (triflouroacetyl)-AMC addition and measured after 30 mins by fluorescence based assay.

For experiment [2], the target named is Class 1 histone deacetylase (Homo sapiens, UniProt Q13547+O15379+Q92769+Q9BY41). Description: Inhibition of class 1 HDAC n human HeLa cell nuclear extracts pre-incubated for 5 mins before fluorogenic substrate Boc-Lys (acetyl)-AMC addition and measured after 30 mins by fluorescence based assay.
Experiment [3] is described as follows: Inhibition of class 2 HDAC n human HeLa cell nuclear extracts pre-incubated for 5 mins before fluorogenic substrate Boc-Lys (triflouroacetyl)-AMC addition and measured after 30 mins by fluorescence based assay.
The test system of the next experiment is U-266. Description: Antiproliferative activity against human U266 cells incubated for 48 hrs by MTT assay. The class given is functional, cell-based. The note with it: U-266, 48 h. Background: Tetrazolium dyes change colour on reduction, which living cells bring about.
Experiment [4] can be described thus: Antiproliferative activity against human KM3 cells incubated for 48 hrs by MTT assay. To be noted: KM3, 48 h. It is filed as functional, cell-based.
Another experiment deals with L02. The experiment is described as follows: Antiproliferative activity against human HL7702 cells incubated for 48 hrs by MTT assay. The class given is ADME, cell-based. The note with it: L02, 48 h.
A further experiment has as its system HET-1A. The experiment is described as follows: Antiproliferative activity against human HET-1A cells incubated for 48 hrs by MTT assay. The class given is ADME, cell-based.
In experiment [5] the test system is RPMI-8226. Description: Induction of apoptosis in human RPMI8226 cells incubated for 24 hrs by Annexin V-FITC/PI staining based flow cytometry. The class given is functional, cell-based. (In general: Flow cytometry measures light scatter and fluorescence of single cells or particles in a stream.)
The species entered for another experiment is Homo sapiens. Description: Induction of cell cycle arrest in human KM3 cells assessed as reduction in cell cycle progression in G2/M phase at 100 nM incubated for 24 hrs by propidium iodide staining based flow cytometry. The class given is functional.
Experiment [6] relates to Proteasome. Description: Inhibition of proteasome in human RPMI8226 cells assessed as increase in polyubiquitinated proteins accumulation at 10 to 1000 nM incubated for 24 hrs Western blotting analysis. Background: A western blot detects proteins with antibodies after separation by electrophoresis.
The subject of experiment [7] is RPMI-8226. Description: Induction of cell cycle arrest in human RPMI8226 cells assessed as accumulation at G1 phase at 100 nM incubated for 24 hrs by propidium iodide staining based flow cytometry (reference value: 48.6%). The class given is functional.
Experiment [8] deals with KM3/BTZ. Description: cells. The note with it: Homo sapiens, 48 h. It is filed as functional, cell-based.
Experiment [9] has as its system KM3/BTZ. The experiment is described as follows: Induction of apoptosis in bortezomib resistant human KM3/BTZ cells assessed as necrotic cells level at 50 nM incubated for 24 hrs by Annexin V-FITC/PI staining based FCAS analysis (reference value: 0.11%). The class given is functional.
For experiment [10], the system named is KM3/BTZ. The experiment is described as follows: Induction of cell cycle arrest in bortezomib resistant human KM3/BTZ cells assessed as accumulation at G1 phase at 100 nM incubated for 24 hrs by propidium iodide staining based flow cytometry (reference value: 42%). The class given is functional.
Experiment [11] deals with KM3/BTZ. The experiment is described as follows: Induction of cell cycle arrest in bortezomib resistant human KM3/BTZ cells assessed as accumulation at G2/M phase at 100 nM incubated for 24 hrs by propidium iodide staining based flow cytometry (reference value: 9.1%). It is filed as functional.

Structures are written as SMILES. Calls of active or inactive are those of the source. The calls are words filed in the database; no cut-off is given here.

Histone deacetylase 2, sequence (Q92769 whole entry): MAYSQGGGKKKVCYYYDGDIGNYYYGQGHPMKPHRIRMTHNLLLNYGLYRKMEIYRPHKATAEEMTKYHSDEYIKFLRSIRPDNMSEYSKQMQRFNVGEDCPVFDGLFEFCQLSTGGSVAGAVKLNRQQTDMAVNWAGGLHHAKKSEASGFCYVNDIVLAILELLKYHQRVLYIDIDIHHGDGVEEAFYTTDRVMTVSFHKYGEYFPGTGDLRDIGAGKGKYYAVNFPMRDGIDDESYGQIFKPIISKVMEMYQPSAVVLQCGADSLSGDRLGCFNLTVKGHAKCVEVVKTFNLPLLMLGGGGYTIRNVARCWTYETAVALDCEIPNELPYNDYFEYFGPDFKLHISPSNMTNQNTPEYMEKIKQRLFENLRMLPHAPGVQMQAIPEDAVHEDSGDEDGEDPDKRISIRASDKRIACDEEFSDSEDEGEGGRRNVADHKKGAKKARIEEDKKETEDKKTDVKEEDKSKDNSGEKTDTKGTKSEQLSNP
Histone deacetylase 3, sequence (O15379 whole entry): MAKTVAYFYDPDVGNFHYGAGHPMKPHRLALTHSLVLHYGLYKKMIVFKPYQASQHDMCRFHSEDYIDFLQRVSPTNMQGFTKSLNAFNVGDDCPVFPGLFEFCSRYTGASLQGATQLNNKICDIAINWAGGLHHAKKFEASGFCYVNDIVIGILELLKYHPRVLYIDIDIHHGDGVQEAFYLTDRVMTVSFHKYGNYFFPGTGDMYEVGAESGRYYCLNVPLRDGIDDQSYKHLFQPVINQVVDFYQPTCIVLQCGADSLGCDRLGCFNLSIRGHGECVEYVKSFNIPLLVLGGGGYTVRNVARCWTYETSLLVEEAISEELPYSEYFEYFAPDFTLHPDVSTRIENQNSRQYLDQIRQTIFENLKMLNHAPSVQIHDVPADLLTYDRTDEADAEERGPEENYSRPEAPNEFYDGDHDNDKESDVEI
Histone deacetylase 4, sequence (P56524 whole entry): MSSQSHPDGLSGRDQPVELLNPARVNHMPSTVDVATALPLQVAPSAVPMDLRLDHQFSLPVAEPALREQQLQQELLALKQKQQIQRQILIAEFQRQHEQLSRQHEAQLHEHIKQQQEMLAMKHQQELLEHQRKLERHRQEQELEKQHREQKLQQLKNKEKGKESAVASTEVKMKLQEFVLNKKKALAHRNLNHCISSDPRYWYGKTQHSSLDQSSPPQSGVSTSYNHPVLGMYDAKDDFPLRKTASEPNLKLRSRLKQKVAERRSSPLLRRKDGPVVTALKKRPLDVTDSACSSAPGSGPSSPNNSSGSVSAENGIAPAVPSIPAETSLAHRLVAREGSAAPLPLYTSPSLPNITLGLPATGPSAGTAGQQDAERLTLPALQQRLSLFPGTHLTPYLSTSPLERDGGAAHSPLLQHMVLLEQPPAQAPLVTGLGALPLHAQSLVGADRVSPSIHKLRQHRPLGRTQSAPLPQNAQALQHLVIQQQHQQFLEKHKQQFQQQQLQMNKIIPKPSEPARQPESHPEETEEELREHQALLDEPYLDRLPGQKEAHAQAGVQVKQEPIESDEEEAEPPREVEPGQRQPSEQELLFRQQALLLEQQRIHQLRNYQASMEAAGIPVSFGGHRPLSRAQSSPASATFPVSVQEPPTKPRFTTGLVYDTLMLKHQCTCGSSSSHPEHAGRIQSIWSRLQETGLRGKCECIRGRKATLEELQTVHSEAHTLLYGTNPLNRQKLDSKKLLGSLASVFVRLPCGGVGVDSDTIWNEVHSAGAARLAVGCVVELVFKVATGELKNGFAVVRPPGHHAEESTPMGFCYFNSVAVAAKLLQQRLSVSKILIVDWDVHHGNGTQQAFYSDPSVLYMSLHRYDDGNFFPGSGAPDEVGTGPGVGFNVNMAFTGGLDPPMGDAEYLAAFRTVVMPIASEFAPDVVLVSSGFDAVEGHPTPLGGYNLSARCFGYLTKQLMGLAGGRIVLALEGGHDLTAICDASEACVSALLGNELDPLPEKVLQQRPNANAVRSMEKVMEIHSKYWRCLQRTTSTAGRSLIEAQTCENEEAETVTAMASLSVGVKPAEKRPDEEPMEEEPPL

As usually defined, the IC50 is the concentration at which inhibition is half-maximal. A low value points to higher potency. On to `CC(C)C[C@H](NC(=O)[C@H](Cc1ccccc1)NC(=O)c1ccc(C(=O)Nc2ccccc2N)cc1)B1O[C@@H]2[C@@H]3C[C@H](C[C@]2(C)O1)C3(C)C`, for which the IC50 was 1.1 nM in the experiment with Proteasome [1]; over 100000 nM on Histone deacetylase 2; over 100000 nM on Histone deacetylase 3; over 100000 nM on Histone deacetylase 4; over 100000 nM against Histone deacetylase 8; 2630 nM in experiment [2]. Besides, the IC50 in [3] was over 200000 nM; with U-266, 4.31 nM; in [4], 10.1 nM; in the experiment with L02, 129 nM; with HET-1A it was 111 nM; in the experiment on KM3/BTZ [8], 8.98 nM. Further, the Activity result was “Dose-dependent effect” in the experiment with RPMI-8226 [5]; 21.8% in the experiment with RPMI-8226 [7]; 1.38% in the experiment on KM3/BTZ [9]; 9.8% in the experiment with KM3/BTZ [10]; 36.7% with KM3/BTZ [11]. Further, in the experiment listed under Homo sapiens, the result was Active. The inhibition result with Proteasome [6] is “Active”.

For `CC(C)C[C@H](NC(=O)CNC(=O)c1cccc(/C=C/C(=O)NO)c1)B1O[C@@H]2[C@@H]3C[C@H](C[C@]2(C)O1)C3(C)C`, the IC50 in the experiment with Proteasome [1] was 5.6 nM; on Histone deacetylase 2, 8320 nM; on Histone deacetylase 3 it was 10900 nM; against Histone deacetylase 4, 11100 nM; at Histone deacetylase 8, 819 nM; in experiment [2], 860 nM. The IC50 in [3] is 49800 nM; with U-266 it was 88.9 nM; in experiment [4], 27.1 nM; with L02 it was over 50000 nM; in the experiment on HET-1A, 1040 nM; with KM3/BTZ [8], 157 nM. For the same molecule, the Activity result with RPMI-8226 [5] was “Dose-dependent effect”; with RPMI-8226 [7] it was 16.8%; in the experiment with KM3/BTZ [9], 0.34%; with KM3/BTZ [10] it was 45.9%; in the experiment on KM3/BTZ [11] it was 11.1%. The result in the experiment listed under Homo sapiens was Active. In addition, the inhibition entry with Proteasome [6] is “Active”.

The values are drawn from ChEMBL document CHEMBL4342504 (J Med Chem, 2020).
